The species entered for this test is Oryctolagus cuniculus. The experiment in a line: Compound was tested for its ability to release [Ca2+] from permeabilised rabbit platelets. Type of test: functional, organism-based.

Usually EC50 stands for the concentration at which the effect is half-maximal. Read a high EC50 as weaker potency.

For `O=P(O)(O)OC1[C@@H](O)C(CO)C(OP(=O)(O)O)[C@H](OP(=O)(O)O)[C@@H]1O` (stereo partly drawn), the midpoint of the response (Oryctolagus cuniculus), the EC50, lay at 440 nM.

Consider `O=P(O)(O)O[C@@H]1[C@@H](O)[C@@H](O)[C@@H](OP(=O)(O)O)C(O)[C@H]1OP(=O)(O)O` (single isomer, unassigned) [INS(1,4,5)P3], for which the EC50 was determined as 400 nM.

`O=P(O)(O)O[C@H]1C(O)[C@@H](OP(=O)(O)O)[C@H](OP(=O)(O)O)[C@@H](O)C1O` (single isomer, unassigned) [INS(1,4,5)P3] registered a concentration giving a half-maximal response (EC50) of 1670 nM.

Values taken from ChEMBL document CHEMBL1129165, “6-Deoxy-6-hydroxymethyl scyllo-inositol 1,2,4-trisphosphate: A potent agonist at the inositol 1,4,5-trisphosphate receptor” (Bioorg Med Chem Lett, 1996).
